Legend:
[1] = system: circulating CD34+CXCR4+ fibrocytes; assay: Phase 2 TAO trial: MHC II and B7 proteins in circulating fibrocytes (flow cytometry); format: in vivo, human; details: TAO patients, 20 mg/Kg, 24-week treatment
Method: (§1) Studies of circulating CD34^+ fibrocytes and T cells PBMCs from patients with active, moderate to severe TAO enrolled in a phase 2 trial for teprotumumab were cryopreserved immediately after collection. Venous blood sampling occurred at baseline and at week 24, following 8 infusions at 3 weekly intervals. The post-treatment sample was obtained 3 weeks after the final infusion of active drug or placebo. Samples were thawed and incubated with 10% knockout serum replacement medium for 1h and stained. Rinsed samples were subjected to FACS analysis with a Calibur flow cytometer (BD). Viable cells were gated on the basis of forward light scatter. All samples were analyzed using quadrant settings based on negative staining with isotype control antibodies. Mean fluorescent intensity (MFI) was calculated as the ratio of mean sample to isotype control fluorescence. Data were analyzed with FCS Express software (De Novo Software, Ontario, CA).

[2] = system: circulating CD3+CD4+ T cells; assay: Phase 2 TAO trial: INFγ and IL-17A in circulating T cells (flow cytometry); format: in vivo, human; details: TAO patients, 20 mg/Kg, 24-week treatment
Method: as §1

[3] = system: GD-OF; assay: icIL-1RA and sIL-1RA protein (ELISA); format: cell-based, human
Method: FIGS. 11A-11F are graphs showing teprotumumab attenuates bTSH induced IL-10 while enhancing icIL-1RA and sIL-1RA expression in fibrocytes and GD-OF. Fibrocyte cultures were treated with teprotumumab (50 μg/ml), rhSlit2 (50 ng/ml) or human Isotype IgG for 7-9 d, with bTSH (5 mIU/mL) for final 6 h. RNA was extracted and reverse transcribed. Isolated cDNA was subjected to quantitative real-time PCR for IL-10 (FIGS. 11A and 11B), icIL-1RA (FIGS. 11C and 11D). Media and cellular proteins were collected and subjected to specific ELISAs for icIL-1RA and sIL-1RA (FIGS. 11E, 11F, 11G, and 11H). PCR values were normalized to their respective GAPDH levels. icIL-1RA and sIL-1RA protein levels were normalized to cellular protein levels. Data are expressed as the mean±SD of three independent determinations. Experiments were repeated three times. **, p<0.01; ***. P<0.001.

[4] = system: fibrocytes and GD-OF; assay: BAFF expression and induction by bTSH; format: cell-based, human; details: teprotumumab 50 μg/ml or rhSlit2 50 ng/ml
Method: FIGS. 12A-12F are graphs showing the effect of bTSH, teprotumumab, and Slit2 on B-cell activating factor (BAFF) expression in fibrocytes and GD-OF. In FIGS. 12A and 12B, cultures were treated for the graded intervals indicated along the abscissas with bTSH (5 mIU/mL). Cellular RNA was harvested and subjected to reverse transcription by RT-PCR (FIG. 12A). Values were normalized to their respective GAPDH levels Medium was assayed for BAFF levels with an ELISA (FIG. 12B). Values were normalized to respective monolayer protein content. Data are expressed as mean f SD of triplicate determinations; *, p<0.05; **, p<0.01; ***, p<0.001. In FIGS. 12C-12F, bTSH, teprotumumab (50 μg/ml) or recombinant human Slit2 (rhSlit2) (50 ng/ml) were added to culture media for the times indicated and analyzed for BAFF mRNA levels as in FIG. 12A. In FIGS. 12F, parental GD-OF strains were sorted into pure CD34^+ and CD34^− subsets. Subsets were then cultured for 48 h, the final 6 h in the absence or presence of bTSH. Data were expressed as mean f SD of triplicate independent determinations from a single experiment representative of three conducted. *, p<0.05; **, p<0.01
IL-12, IL-23, IL-10, HA and BAFF ELISAs. Confluent cultures were treated with nothing or teprotumumab (50 μg/mL) for 5 d, without or with bTSH (5 mU/mL) for the intervals indicated or 72 h. […]

[5] = system: GD-OF; assay: HAS1 and HAS2 mRNA, real-time PCR; format: cell-based, human; details: teprotumumab 50 μg/ml or linsitinib 1 μM, 7-9 d
Method: (§2) FIGS. 13A-13B are graphs showing the effect of teprotumumab on bTSH induced hyaluronan (HA) production in GD-OF (FIG. 13A) and fibrocytes (FIG. 13B). GD-OF were treated with or without teprotumumab (50 μg/ml) or human Isotype IgG (5 μg/ml) for 7-9 d and stimulated with bTSH (5 mIU/mL) for graded intervals indicated along the abscissa for 0 to 96h. Media were collected and subjected to HA ELISA. Values were normalized to respective cell layer protein levels and expressed as the mean±SD of three independent determinations. Experiments were repeated three times. FIGS. 13C-13F are graphs showing the divergent pattern of hyaluronan synthase (HAS) isoenzyme induction by bTSH in fibrocytes versus GD-OF and effects of teprotumumab (FIGS. 13C and 13D) and linsitinib (FIGS. 13E and 13F). Confluent monolayers of GD-OF and fibrocytes remained untreated or received teprotumumab (50 μg/ml) or linsitinib (1 μM) and human Isotype IgG for 7-9 d. Some cultures were treated with bTSH (5 mIU/mL) for 6h. Cellular RNA was harvested mRNA was reverse transcribed, and cDNA subjected to quantitative real-time PCR for HAS1 and HAS2. Values were normalized to their respective GAPDH levels and are expressed as the mean±SD of three independent determinations. Experiments were repeated three times. *, P<0.05; **, p<0.01; ***. P<0.001.
(§3) Real-time PCR Confluent fibrocyte and GD-OF cultures were incubated with bTSH (5 mIU/mL), teprotumumab (50 μg/mL) or linsitinib (1 μM) for the time intervals indicated, washed with PBS and RNA was extracted with the Aurum Total RNA Mini Kit (cat. #732-6820, Bio-Rad, Hercules, CA). Cellular RNA (2 μg) was reverse transcribed using QuantiTect Reverse Transcription kit (cat. #205314, Qiagen (Germantown, MD) and real-time PCR was performed using an Applied Biosystems instrument with QuantiTect SYBR Green PCR kit (cat. no. 204143; Qiagen, Frederick, MD). Primer sequences were as follows.

[6] = system: fibrocytes; assay: HAS1 and HAS2 mRNA, real-time PCR; format: cell-based, human; details: teprotumumab 50 μg/ml or linsitinib 1 μM, 7-9 d
Method: as §2, §3

teprotumumab
reduction of CD80 expression level compared to baseline [1]: 54%
reduction of CD86 expression level compared to baseline [1]: 47%
reduction of MHC-II expression level compared to baseline [1]: 40%
reduction of PD-L1 expression level compared to baseline [1]: 47%
reduction of IL-17A expression level in CD4+ T cells [2]: 47%
reduction of INFγ expression level in CD4+ T cells [2]: 41%
icIL-1RA protein levels [3]: upregulated
sIL-1RA protein levels [3]: upregulated
bTSH induction of BAFF [4]: attenuated
HAS2 expression, single agent or in combination with bTSH [5]: induced
basal and bTSH-provoked expression of HAS1 [5]: inhibited
HAS2 expression, single agent or in combination with bTSH [6]: induced
basal and bTSH-provoked expression of HAS1 [6]: inhibited

— US20250034264A1, “REGULATING T CELL IMMUNE RESPONSE THROUGH IGF-I RECEPTOR (IGF-1R)” (The Regents of the University of Michigan, priority 2021, published 2025)
